Assay results as given in US20230241083A1, “FORMULATION COMPRISING CANNABINOIDS” (CANNOVEX BV, priority 2020, published 2023).

Assay: Stability study of THC in a receiver solution
Assay type: physicochemical
Conditions: receiver solution EtOH:H2O (50/50 vol); 3, 6, 8, 24, 30, 48 hours
Excerpt: FIG. 2: Stability study of THC in a receiver solution.

## CCCCCc1cc(O)c2c(c1)OC(C)(C)[C@@H]1CCC(C)=C[C@@H]21 [THC, Delta-9-tetrahydrocannabinol]
  THC concentration over time in receiver solution (stability): does not decay over time
